Data published in patent publication US7612065B2, “Inhibitors of c-JUN N-terminal kinases (JNK)” (priority 2007, dated 2009).

Target: T1, JNK3 (Homo sapiens, UniProt P53779)
T1 construct: One such construct encodes amino acid residues Ser40-Glu402 of JNK3α1 and is preceded by Met and Gly residues; Met-Gly (initiation methionine plus glycine added for the NcoI site); made in house; host or cells: E. coli BL21 (DE3)
Assay: JNK inhibition assay: spectrophotometric coupled-enzyme assay with activated JNK3
Assay type: biochemical
Details: activated JNK3 10 nM, 10 μM ATP, 200 μM EGF receptor peptide, 30° C., competitive inhibition model
Outline: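 Activated (doubly phosphorylated, MKK7(DD)-activated) human JNK3, 10 nM, preincubated 10 min at 30 °C with inhibitor in 0.1 M HEPES pH 7.5, 10 mM MgCl2, 200 μM EGF receptor peptide, PK/LDH-coupled. Started with 10 μM ATP; A340 decrease followed at 30 °C. Ki from competitive inhibition model fit.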

T1 sequence (P53779 40-402): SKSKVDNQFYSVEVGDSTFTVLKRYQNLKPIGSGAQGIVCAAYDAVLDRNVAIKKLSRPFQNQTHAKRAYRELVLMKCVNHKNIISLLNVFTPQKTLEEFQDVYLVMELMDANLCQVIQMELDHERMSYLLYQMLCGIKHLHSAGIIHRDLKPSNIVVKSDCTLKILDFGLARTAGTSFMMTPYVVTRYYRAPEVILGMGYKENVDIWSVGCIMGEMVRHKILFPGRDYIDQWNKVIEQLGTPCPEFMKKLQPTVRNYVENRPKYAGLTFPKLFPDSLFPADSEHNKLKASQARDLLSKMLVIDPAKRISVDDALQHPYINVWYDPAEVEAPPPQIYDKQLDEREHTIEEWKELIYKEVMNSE

Ki [nM]	SMILES
≥ 1000	C[C@H](NC(=O)OCC1c2ccccc2-c2ccccc21)C(=O)Nc1ccc2c(c1)N(Cc1cc(F)cc3c1OCOC3)C(=O)/C2=N\O [Compound 352]
< 1000	O=C(c1ccc2c(c1)/C(=N\O)C(=O)N2Cc1cc(F)cc2c1OCOC2)c1cccc(Cl)c1Cl [Compound 355]
< 1000	O=C(c1ccc2c(c1)/C(=N\O)C(=O)N2Cc1cc(F)cc2c1OCOC2)c1ccccc1Cl [Compound 356]
